{"source": "patent US20240350647A1", "about": "“STING SENSITIZING AGENTS” (STipe Therapeutics ApS, priority 2023, published 2024)", "key": {"[1]": {"assay": "FIG. 10A", "conditions": "mouse, in vivo, iv, 10 mg/kg", "protocol": "Table printed on a drawing sheet, FIG. 10A\nThe patent's description of the figure: FIGS. 10A-10C. Pharmacokinetic profile and parameter for peptides after intravenous administration. FIG. 10A) Mouse PK data (10 mg/kg, bolus IV, n=3 per timepoint). FIG. 10B) Rat PK data (10 mg/kg, bolus IV, n=3 per timepoint). FIG. 10C) Non-human primate (NHP) PK data (4 mg/kg, 30 min IV infusion, n=3). Error bars represent the standard deviation (SD).\nFirst reader's note: Mouse PK parameters; the legend of the plot on the same sheet gives 10 mg/kg (IV) for both agents."}, "[2]": {"assay": "Pharmacokinetics after 30-min intravenous infusion, cynomolgus monkey", "type": "in vivo", "conditions": "4 mg/kg 30 min IV infusion", "protocol": "(§1) Test agents were formulated in 2% (v/v) propylene glycol in 25 mM HEPES, pH 7.4 and administered with a bolus injection at 10.0 mg/kg via the tail vain to male CD-1 mice (Charles River Laboratories) or male Wistar rats (Charles River Laboratories), or with a 30-min intravenous infusion at 4 mg/kg to male cynomolgus monkeys.\nBlood samples were collected at 2.5, 5, 10, 30, 60, 120, 240 and 480 minutes after administration (mouse and rat), or at 5, 15, 30, 60, 120, 240, 360, 480 and 1440 min (Agent 1) or at 5, 15, 30, 45, 60, 90, 150, 240 and 480 min (Agent 2) after the start of infusion in monkeys. […]\nMonkey samples, Agent 1: Separation was done with a C18 column (Waters Acquity UPLC BEH C18 (50×2.1 mm, 1.7 μm)), using a gradient between 0.1% formic acid in water and 0.1% formic acid in acetonitrile. […] The range of quantitation was 10-3,000 ng/mL.\nMonkey samples, Agent 2: Separation was done with a C18 column (Waters Acquity CSH C18 (50×2.1 mm, 1.7 μm)), using a gradient between 0.2% formic acid in acetonitrile and 0.2% formic acid in water. […] The range of quantitation was 10-10,000 ng/mL.\n(§2) Non-compartmental PK analysis on plasma concentration versus time data was analyzed by non-compartmental approaches using the WinNonlin software program (version 6.3 or above, Pharsight, Mountain View, CA). […]"}, "[3]": {"assay": "Pharmacokinetics after intravenous bolus, rat", "type": "in vivo", "conditions": "10 mg/kg bolus IV", "protocol": "as §1\n(§3) Blood samples were collected at 2.5, 5, 10, 30, 60, 120, 240 and 480 minutes after administration (mouse and rat), or at 5, 15, 30, 60, 120, 240, 360, 480 and 1440 min (Agent 1) or at 5, 15, 30, 45, 60, 90, 150, 240 and 480 min (Agent 2) after the start of infusion in monkeys. Samples were immediately mixed with a protease inhibitor cocktail (Roche cOmplete™ EDTA-free) before being cooled and centrifuged for plasma separation. Plasma samples were frozen and stored at −20° C. until analysis.\n(§4) To rat samples, blank rat plasma was added up to a volume of 100 μl. […]\n(§5) Mouse and rat samples: Separation was done with a C18 column (Phenomenex Kinetex XB—C18 (100×2.1 mm, 1.7 μm)), using a gradient between 1% formic acid in water and 2% DMSO in acetonitrile (Agent 1) or acetonitrile (Agent 2). […] The range of quantitation was 4-20,000 ng/mL.\nas §2"}, "[4]": {"assay": "Pharmacokinetics after intravenous bolus, mouse", "type": "in vivo", "conditions": "10 mg/kg bolus IV", "protocol": "as §1, §3, §4, §5, §2"}}, "note": "Where a SMILES comes first, the peptide text is derived from it. Bridges are numbered along the chain shown (N, C = ends). [ ]: non-standard residue; d: D form. The star is where a group is joined. C16 diacid = O=C(O)CCCCCCCCCCCCCCC(=O)*; AEEA = NCCOCCOCC(=O)O"}
{"molecule": "CC[C@H](C)[C@H](NC(=O)[C@H](CC(N)=O)NC(=O)[C@H](CCCCN)NC(=O)[C@H](C)NC(=O)[C@H](CCCCN)NC(=O)[C@H](CCCCN)NC(=O)COCCOCCNC(=O)COCCOCCNC(=O)CCCCCCCCCCCCCCC(=O)O)C(=O)N[C@H](C(=O)N[C@@H](CC(C)C)C(=O)N[C@@H](CC(C)C)C(=O)N[C@@H](CCCCN)C(=O)NCC(=O)N[C@@H](CC(C)C)C(=O)N[C@@H](CCC(=O)O)C(=O)N[C@H](C(=O)N[C@H](C(=O)N[C@@H](CC(N)=O)C(=O)N[C@@H](CC(=O)O)C(=O)N[C@@H](Cc1c[nH]c2ccccc12)C(=O)N[C@@H](Cc1c[nH]cn1)C(=O)N[C@@H](Cc1ccccc1)C(=O)N[C@H]1CSSC[C@@H](C(N)=O)NC(=O)[C@@H](CCCNC(=N)N)NC(=O)[C@H](CCCNC(=N)N)NC(=O)[C@@H](CCCCN)NC(=O)[C@H](CCCCN)NC(=O)[C@@H](CCCNC(=N)N)NC(=O)CNC(=O)[C@@H](CCCNC(=N)N)NC(=O)[C@H](CCCNC(=N)N)NC(=O)[C@@H](CCCNC(=N)N)NC1=O)[C@@H](C)CC)C(C)C)C(C)C", "note": "[Agent 1] ({C16 diacid-AEEA-AEEA}-KKAKNIVLLKGLEVINDWHFC[dR]R[dR]G[dR]K[dK]R[dR]C-NH2; disulfide 21-31)", "values": [{"measurement": "C0", "setting": "[1]", "value": 30500, "unit": "ng/mL"}, {"measurement": "increase in exposure (AUC0-inf) compared to Agent 2, at equal dose", "setting": "[2]", "value": "~13", "unit": "fold"}, {"measurement": "increase in exposure (AUC0-inf) compared to Agent 2, at equal dose", "setting": "[3]", "value": "~27", "unit": "fold"}, {"measurement": "increase in exposure (AUC0-inf) compared to Agent 2, at equal dose", "setting": "[4]", "value": "approximately 32 fold"}]}
